Data on 27 compounds can be found in patent publication US20080234266A1, “Squaric Acid Derivatives II” (priority 2005, published 2008).

Each structure is given as a SMILES string.

The assay concerns the target T1, CHK1 kinase (Homo sapiens, UniProt O14757).
T1 construct: glutathione S-transferase (GST); made in house; host or cells: Sf21 insect cells (S. frugiperda), baculovirus
T1 sequence (O14757 1-476): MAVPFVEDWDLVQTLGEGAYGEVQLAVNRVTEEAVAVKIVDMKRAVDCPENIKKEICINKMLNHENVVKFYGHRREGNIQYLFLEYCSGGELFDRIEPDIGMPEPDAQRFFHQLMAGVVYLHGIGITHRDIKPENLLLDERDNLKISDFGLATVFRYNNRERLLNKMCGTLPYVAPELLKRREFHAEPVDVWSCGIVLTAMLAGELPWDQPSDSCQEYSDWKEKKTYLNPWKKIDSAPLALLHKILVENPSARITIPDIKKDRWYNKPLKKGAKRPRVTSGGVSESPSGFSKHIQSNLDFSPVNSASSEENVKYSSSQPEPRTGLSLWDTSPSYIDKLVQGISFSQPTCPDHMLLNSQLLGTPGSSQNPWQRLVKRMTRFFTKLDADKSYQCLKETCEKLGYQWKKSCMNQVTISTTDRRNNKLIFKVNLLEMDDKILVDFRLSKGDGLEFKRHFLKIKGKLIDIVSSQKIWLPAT
As to the kind of experiment: Flashplate method (CHK1), measurement of the CHK1 kinase activity. The assay is classed as biochemical. As to conditions: class symbols; 'Affinity to receptors'. Here is the method:
CHK1 kinase is expressed for the purposes of protein production in insect cells (Sf21; S. frugiperda) and subsequent purification by affinity chromatography as fusion protein with glutathione S-transferase in a baculovirus expression vector. The cultivation, infection and digestion of the cells as well as the purification of the fusion protein by column chromatography are carried out in accordance with manufacturer-oriented generic working instructions.
The kinase activity is measured using various available measurement systems. In the scintillation proximity method (Sorg et al., J. of. Biomolecular Screening, 2002, 7, 11-19), the flashplate method or the filter binding test, the radioactive phosphorylation of a protein or peptide as substrate is measured using radioactively labelled ATP (γ^32P-ATP, (γ^33P-ATP). In the case of the presence of an inhibitory compound, a reduced radioactive signal, or none at all, can be detected. Furthermore, homogeneous time-resolved fluorescence resonance energy transfer (HTR-FRET) and fluorescence polarisation (FP) technologies are useful as assay methods (Sills et al., J. of Biomolecular Screening, 2002, 191-214).
The test plates used are 384-well streptavidin-coated Flashplates Plus® from Perkin Elmer (Cat.No. SMP410A001PK). The assay plate is equilibrated with 75 μl of assay buffer per well 30 min before commencement of the experiment. The buffer is sucked out before commencement of the experiment, and the components of the kinase reaction described below are pipetted onto the plate.
CHK1 kinase, a biotinylated substrate peptide (for example CHKtide: […]), is incubated with radioactively labelled ATP in the presence and absence of test substances at 30° Celsius and a total volume of 50 μl. The reaction is terminated using 25 μl of a 0.2 M EDTA solution. After incubation for 30 min at room temperature, the supernatants are filtered off with suction, and the wells are washed three times with 100 μl of 0.9% NaCl solution each time. The measurement of the bound radioactivity is carried out by means of a scintillation measuring instrument (Topcount NXT, Perkin-Elmer).
The full value used is the inhibitor-free kinase reaction. This should be approximately in the range 3000-4000 cpm. The pharmacological zero value used is staurosporin in a final concentration of 0.1 μM. The inhibitory values (IC50) are determined using the program RS1_MTS ( ).
Kinase reaction conditions per well:
0.15 μg of CHKtide ([…])
50 μl total volume (1-fold assay buffer reaction conditions)
Solutions used: • assay buffer:
0.1 mM Titriplex VI (EGTA
10 mM magnesium acetate 0.1% mercaptoethanol
pH=7.5 (to be set using hydrochloric acid) Bovine serum albumin (final concentration 0.1%) is not added until just before use. • stop solution:
0.2 M TitriplexIII (EDTA)
• γ^33P-ATP (Perkin-Elmer) • CHK1 kinase preparations: specific activity>50 U/mg • CHKtide solution: biotinylated peptide substrate (Biotrend) stored as stock solution (concentration 0.15 mg/ml).
Usually IC50 stands for the point on the concentration scale where inhibition reaches its midpoint. `O=c1c(NCc2ccc(O)cc2)c(Nc2ccc3[nH]cnc3c2)c1=O` [Compound A139, 3-(1H-benzimidazol-5-ylamino)-4-(4-hydroxy-benzylamino)cyclobut-3-ene-1,2-dione] gave a half-inhibitory concentration (IC50) of over 1000 nM. To `O=c1c(NCc2ccc3cc[nH]c3c2)c(Nc2ccc3[nH]cnc3c2)c1=O` [Compound A137, 3-(1H-benzimidazol-5-ylamino)-4-[(1H-indol-6-ylmethyl)amino]cyclobut-3-ene-1,2-dione] belongs over 1000 nM; to `O=C(O)c1cccc(CNc2c(Nc3ccc4[nH]cnc4c3)c(=O)c2=O)c1` [Compound A130, 3-(1H-benzimidazol-5-ylamino)-4-(3-carboxy-benzylamino)cyclobut-3-ene-1,2-dione], over 1000 nM; to `COCCn1cnc2ccc(Nc3c(N[C@H](C)c4cccc(O)c4)c(=O)c3=O)cc21` [Compound A68, 3-[3-(2-methoxyethyl)-3H-benzimidazol-5-ylamino]-4-[(R)-1-(3-hydroxyphenyl)ethyl-amino]cyclobut-3-ene-1,2-dione], under 1000 nM. For the compound `CC[C@@H](Nc1c(Nc2ccc3[nH]cnc3c2)c(=O)c1=O)c1cccc(O)c1` [Compound A120, 3-(1H-benzimidazol-5-ylamino)-4-[(R)-1-(3-hydroxyphenyl)propylamino]cyclobut-3-ene-1,2-dione], the IC50 is under 1000 nM. With `O=c1c(NCc2cccc(O)c2)c(Nc2cc3nc[nH]c3cc2F)c1=O` [Compound A129, 3-(6-fluoro-1H-benzimidazol-5-ylamino)-4-(3-hydroxybenzylamino)cyclobut-3-ene-1,2-dione], the half-inhibitory concentration (IC50) is over 1000 nM. To `CS(=O)(=O)Oc1cccc(CNc2c(Nc3ccc4[nH]cnc4c3)c(=O)c2=O)c1` [Compound A132, 3-(1H-benzimidazol-5-ylamino)-4-(3-methyl-sulfonyloxybenzylamino)cyclobut-3-ene-1,2-dione] belongs over 1000 nM.

`O=c1c(NCc2ccccc2O)c(Nc2ccc3[nH]cnc3c2)c1=O` [Compound A158, 3-(1H-benzimidazol-5-ylamino)-4-(2-hydroxy-benzylamino)cyclobut-3-ene-1,2-dione] displayed an IC50 of over 1000 nM. Compound `COc1cccc([C@@H](C)Nc2c(Nc3ccc4ncn(C)c4c3)c(=O)c2=O)c1` [Compound A53, 3-[(R)-1-(3-methoxyphenyl)ethylamino]-4-(3-methyl-3H-benzimidazol-5-ylamino)cyclobut-3-ene-1,2-dione] showed an IC50 of under 1000 nM. To `CCN(CC)CCn1cnc2ccc(Nc3c(NCc4cccc(S(N)(=O)=O)c4)c(=O)c3=O)cc21` [Compound A71, 3-[3-(2-diethylaminoethyl)-3H-benzimidazol-5-ylamino]-4-(3-aminosulfonylbenzylamino)-cyclobut-3-ene-1,2-dione] belongs over 1000 nM; to `O=C(O)CC(Nc1c(Nc2ccc3[nH]cnc3c2)c(=O)c1=O)c1cccc(O)c1` (stereo not drawn) [Compound A99, 3-[2-(1H-benzimidazol-5-ylamino)-3,4-dioxo-cyclobut-1-enylamino]-3-(3-hydroxyphenyl)-propionic acid], over 1000 nM. In turn, `Cc1ccc(CC(O)c2cccc(CNc3c(Nc4ccc5[nH]cnc5c4)c(=O)c3=O)c2)cc1` (stereo not drawn) [Compound A161, 3-(1H-benzimidazol-5-ylamino)-4-[3-(1-hydroxy-2-p-tolylethyl)benzylamino]cyclobut-3-ene-1,2-dione] gave an IC50 of over 1000 nM. Turning to `CC(Nc1c(Nc2ccc3[nH]ncc3c2)c(=O)c1=O)c1cccc(NC(N)=O)c1` (racemic) [Compound A145, 3-(1H-indazol-5-ylamino)-4-[(R,S)-1-(3-ureidophenyl)ethylamino]cyclobut-3-ene-1,2-dione], the IC50 was over 1000 nM.

For `CCn1c2ccccc2c2cc(Nc3c(NCc4cccc(O)c4)c(=O)c3=O)ccc21` [Compound A47, 3-(9-ethyl-9H-carbazol-3-ylamino)-4-(3-hydroxybenzylamino)cyclobut-3-ene-1,2-dione], the half-inhibitory concentration (IC50) was over 1000 nM.

`O=c1c(NCc2ccc3c(c2)OCO3)c(Nc2ccc3[nH]cnc3c2)c1=O` [Compound A123, 3-[(benzo[1,3]dioxol-5-ylmethyl)amino]-4-(1H-benzimidazol-5-ylamino)cyclobut-3-ene-1,2-dione] returned an IC50 of over 1000 nM. The same measure for `CN(C)c1ccc(CNc2c(Nc3ccc4[nH]cnc4c3)c(=O)c2=O)cc1` [Compound A147, 3-(1H-benzimidazol-5-ylamino)-4-(4-dimethylaminobenzylamino)cyclobut-3-ene-1,2-dione]: over 1000 nM; for `Cc1cc2[nH]cnc2cc1Nc1c(NCc2cccc(O)c2)c(=O)c1=O` [Compound A126, 3-(3-hydroxybenzylamino)-4-(6-methyl-1H-benzimidazol-5-ylamino)cyclobut-3-ene-1,2-dione]: over 1000 nM; for `Cc1ccc(CNc2c(Nc3ccc4[nH]cnc4c3)c(=O)c2=O)cc1O` [Compound A92, 3-(1H-benzimidazol-5-ylamino)-4-(3-hydroxy-4-methylbenzylamino)cyclobut-3-ene-1,2-dione]: over 1000 nM. In turn, `CN1CCN(c2ccc(CNc3c(Nc4ccc5[nH]cnc5c4)c(=O)c3=O)cc2)CC1` [Compound A141, 3-(1H-benzimidazol-5-ylamino)-4-[4-(4-methylpiperazin-1-yl)benzylamino]cyclobut-3-ene-1,2-dione] showed an IC50 of over 1000 nM. Consider `COc1cccc(C(CCC2OCCCO2)Nc2c(Nc3ccc4[nH]cnc4c3)c(=O)c2=O)c1` (stereo not drawn) [Compound A138, 3-(1H-benzimidazol-5-ylamino)-4-[3-[1,3]-dioxan-2-yl-1-(3-methoxyphenyl)propyl-amino]cyclobut-3-ene-1,2-dione], for which the IC50 was over 1000 nM.

`CCN(CC)CCn1cnc2cc(Nc3c(N[C@H](C)c4cccc(O)c4)c(=O)c3=O)ccc21` [Compound A73, 3-[1-(2-diethylaminoethyl)-1H-benzimidazol-5-ylamino]-4-[(R)-1-(3-hydroxyphenyl)ethyl-amino]cyclobut-3-ene-1,2-dione] came in with an IC50 of over 1000 nM. To `O=C(CC(Nc1c(Nc2ccc3[nH]cnc3c2)c(=O)c1=O)c1cccc(O)c1)N1CCOCC1` (stereo not drawn) [Compound A105, 3-(1H-benzimidazol-5-ylamino)-4-[1-(3-hydroxyphenyl)-3-morpholin-4-yl-3-oxo-propylamino]cyclobut-3-ene-1,2-dione] belongs over 1000 nM; to `O=c1c(NCc2ccc(Cl)c(Cl)c2)c(Nc2ccc3[nH]cnc3c2)c1=O` [Compound A162, 3-(1H-benzimidazol-5-ylamino)-4-(3,4-dichlorobenzylamino)cyclobut-3-ene-1,2-dione], over 1000 nM; to `O=c1[nH]c2ccc(Nc3c(NCc4cccc(O)c4)c(=O)c3=O)cc2[nH]1` [Compound A30, 4-(2-oxo-2,3-dihydro-1H-benzimidazol-5-yl-amino)-3-(3-hydroxybenzylamino)cyclobut-3-ene-1,2-dione], over 1000 nM. `NC(=O)c1ccc(CNc2c(Nc3ccc4[nH]cnc4c3)c(=O)c2=O)cc1` [Compound A159, 3-(1H-benzimidazol-5-ylamino)-4-(4-amino-carbonylbenzylamino)cyclobut-3-ene-1,2-dione] registered an IC50 of over 1000 nM. Take `O=c1c(NCc2cccc(O)c2)c(Nc2ccc3scnc3c2)c1=O` [Compound A119, 3-(benzothiazol-5-ylamino)-4-(3-hydroxy-benzylamino)cyclobut-3-ene-1,2-dione]: the IC50 is over 1000 nM. For `O=c1c(NCc2cccc(O)c2)c(NCc2ccc3[nH]nnc3c2)c1=O` [Compound A15, 3-(1H-benzotriazol-5-ylmethylamino)-4-(3-hydroxybenzylamino)cyclobut-3-ene-1,2-dione], the 50% inhibitory concentration (IC50) was under 1000 nM.
